US12251459B2, “Compositions, formulations, and methods for hair treatment” (Oddity Labs, LLC, priority 2022, dated 2025)

Test system: human hair follicle dermal papilla cells (hFDPC)
Assay: Human follicle dermal papilla cells (hFDPC) proliferation assay
Format: cell-based
Details: hFDPCs supplemented with BIO, BMP-2 and FGFβ
Text: In Table 8, A represents less than 20% of increased proliferation of hFDPCs, B represents 20-40%, and C represents larger than 40% of increased proliferation of hFDPCs.

SMILES	Percent Increase Proliferation of hFDPCs (%)
C=CCc1cc(/C=C2\C(=O)NC(=S)N(c3ccc(OC)cc3)C2=O)cc(OC)c1O [I-17]	C (C represents larger than 40% of increased proliferation of hFDPCs)
COc1ccc(S(=O)(=O)N2CCC(C(=O)N3CCN(Cc4ccc5c(c4)OCO5)CC3)CC2)cc1C [VI-3, Methanone, [4-(1,3-benzodioxol-5-ylmethyl)-1-piperazinyl][1-[(4-methoxy-3-methylphenyl)sulfonyl]-4-piperidinyl]-]	B (B represents 20-40%)
Cc1ccc(S(=O)(=O)N2CCC(C(=O)N3CCN(Cc4nc5ccccc5s4)CC3)CC2)cc1 [VI-4, Methanone, [4-(2-benzothiazolylmethyl)-1-piperazinyl][1-[(4-methylphenyl)sulfonyl]-4-piperidinyl]-]	A (A represents less than 20% of increased proliferation of hFDPCs)
COc1ccc(S(=O)(=O)Nc2ccc(S(=O)(=O)NCCc3ccccc3)cc2)cc1 [VI-5, Benzenesulfonamide, 4-methoxy-N-[4-[[(2-phenylethyl)amino]sulfonyl]phenyl]-]	A (A represents less than 20% of increased proliferation of hFDPCs)
O=C(O)CC1SC(NN=Cc2ccc(OS(=O)(=O)c3ccc([N+](=O)[O-])cc3)cc2)=NC1=O (stereo not drawn) [VI-6, 5-Thiazoleacetic acid, 4,5-dihydro-2-[2-[[4-[[(4-nitrophenyl)sulfonyl]oxy]phenyl]methylene] hydrazinyl]-4-oxo-]	A (A represents less than 20% of increased proliferation of hFDPCs)
CCS(=O)(=O)n1[nH]c(-c2ccco2)nc1=N [VII-2, 1H-1,2,4-Triazol-5-amine, 1-(ethylsulfonyl)-3-(2-furanyl)-]	A (A represents less than 20% of increased proliferation of hFDPCs)
CCn1c(SCC(=O)c2ccc(S(=O)(=O)N3CCCC3)cc2)nnc1-c1ccco1 [VII-4, Ethanone, 2-[[4-ethyl-5-(2-furanyl)-4H-1,2,4-triazol-3-yl]thio]-1-[4-(1-pyrrolidinylsulfonyl)phenyl]-]	A (A represents less than 20% of increased proliferation of hFDPCs)
NC(=O)c1ccc(NC(=O)CCCc2nc(-c3ccccc3)no2)cc1 [VII-5, 1,2,4-Oxadiazole-5-butanamide, N-[4-(aminocarbonyl)phenyl]-3-phenyl-]	A (A represents less than 20% of increased proliferation of hFDPCs)
CCOC(=O)c1cnn(-c2ccc(C(=O)Nc3ccc(C(=O)NCC(=O)OC)cc3)cc2)c1C [VII-6, 1H-Pyrazole-4-carboxylic acid, 1-[4-[[[4-[[(2-methoxy-2-oxoethyl)amino]carbonyl]phenyl]amino]carbonyl]phenyl]-5-methyl-, ethyl ester]	A (A represents less than 20% of increased proliferation of hFDPCs)
CCOC(=O)c1cnn(-c2ccc(C(=O)Nc3ccc(S(=O)(=O)CC)cc3)cc2)c1C [VII-7, 1H-Pyrazole-4-carboxylic acid, 1-[4-[[[4-(ethylsulfonyl)phenyl]amino]carbonyl]phenyl]-5-methyl-, ethyl ester]	B (B represents 20-40%)
CCOC(=O)c1cnn(-c2cccc(NC(=O)C3CCN(c4ncccn4)CC3)c2)c1C [VII-8, 1H-Pyrazole-4-carboxylic acid, 5-methyl-1-[3-[[[1-(2-pyrimidinyl)-4-piperidinyl]carbonyl]amino]phenyl]-, ethyl ester]	A (A represents less than 20% of increased proliferation of hFDPCs)
NC1=NC2(CCCCCC2)n2c(nc3ccccc32)N1 [VII-9, Spiro[cycloheptane-1, 4′(1′H)-[1,3,5]triazino[1,2-a]benzimidazol]-2′-amine]	B (B represents 20-40%)
O=C1CNCc2[nH]c3ccccc3c2N1c1ccccc1 [VII-10, 1,4-Diazepino[6,5-b] indol-2(1H)-one, 3,4,5,6-tetrahydro-1-phenyl-]	B (B represents 20-40%)
NC1=NC2(CCCCC2)n2c(nc3ccccc32)N1 [VII-11, Spiro[cyclohexane-1, 4′(3′H)-[1,3,5]triazino[1,2-a]benzimidazol]-2′-amine]	A (A represents less than 20% of increased proliferation of hFDPCs)
Cc1cc(C)cc(N2Cc3ccccc3C2)c1 [VII-12, 1H-Isoindole, 2-(3,5-dimethylphenyl)-2,3-dihydro-]	A (A represents less than 20% of increased proliferation of hFDPCs)
Oc1c2c(c(O)n1C1CCCCC1)CC=CC2 [VII-13, 1H-Isoindole-1,3(2H)-dione, 2-cyclohexyl-3a,4,7,7a-tetrahydro-]	A (A represents less than 20% of increased proliferation of hFDPCs)
Cc1cccc(CN2CCN(c3ncccn3)CC2)c1 [VII-15, Pyrimidine, 2-[4-[(3-methylphenyl)methyl]-1-piperazinyl]-]	A (A represents less than 20% of increased proliferation of hFDPCs)
COc1ccc(N(CC(=O)N2CCN(c3ccccc3OC)CC2)S(=O)(=O)c2ccccc2)cc1 [VII-16, Benzenesulfonamide, N-(4-methoxyphenyl)-N-[2-[4-(2-methoxyphenyl)-1-piperazinyl]-2-oxoethyl]-]	A (A represents less than 20% of increased proliferation of hFDPCs)
O=C1Nc2ccccc2SC1CC(=O)N1CCN(C(c2ccccc2)c2ccccc2)CC1 (stereo not drawn) [VII-17, 2H-1,4-Benzothiazin-3(4H)-one, 2-[2-[4-(diphenylmethyl)-1-piperazinyl]-2-oxoethyl]-]	A (A represents less than 20% of increased proliferation of hFDPCs)
O=C(c1cccs1)N1CCN(C(=O)c2cccc3ccccc23)CC1 [VII-18, Piperazine, 1-(1-naphthalenylcarbonyl)-4-(2-thienylcarbonyl)-(9CI)]	A (A represents less than 20% of increased proliferation of hFDPCs)
CC12C=CC(=O)C=C1CCC1C2C(O)CC2(C)C1CC[C@]2(O)C(=O)COC(=O)CCC(=O)O (stereo partly drawn) [VII-19, Pregna-1,4-diene-3, 20-dione, 21-(3-carboxy-1-oxopropoxy)-11,17-dihydroxy-, (11β)-]	A (A represents less than 20% of increased proliferation of hFDPCs)
CCN(Cc1ccccc1)C(=O)c1ccc(C(=O)N(CC)Cc2ccccc2)cc1 [VII-20, 1,4-Benzenedicarboxamide, N^1,N^4-diethyl-N^1, N^4-bis(phenylmethyl)-]	A (A represents less than 20% of increased proliferation of hFDPCs)
Cc1ccc(-c2nn(CC(=O)NCCc3c(C)n(C)c4ccccc34)c(=O)c3ccccc23)cc1S(=O)(=O)N1CCOCC1 [VII-21, 2(1H)-Phthalazineacetamide, N-[2-(1,2-dimethyl-1H-indol-3-yl)ethyl]-4-[4-methyl-3-(4-morpholinylsulfonyl)phenyl]-1-oxo-]	A (A represents less than 20% of increased proliferation of hFDPCs)
COc1ccc(CC(=O)Nc2sc3c(c2C(=O)Nc2cccc([N+](=O)[O-])c2)CCC(C)C3)cc1 (stereo not drawn) [VII-22, Benzo[b]thiophene-3-carboxamide, 4,5,6,7-tetrahydro-2-[[2-(4-methoxyphenyl)acetyl]amino]-6-methyl-N-(3-nitrophenyl)-]	A (A represents less than 20% of increased proliferation of hFDPCs)
COC(=O)c1cccc(NC(=O)c2cc(NC(=O)c3ccccc3)cc(C(=O)Nc3cccc(C(=O)OC)c3)c2)c1 [VII-23, Benzoic acid, 3,3′-[[5-(benzoylamino)-1,3-phenylene]bis(carbonylimino)] bis-, dimethyl ester (9CI)]	B (B represents 20-40%)
Cc1ccc(-c2nc3ncccc3o2)cc1NC(=S)NC(=O)c1ccc(C(C)(C)C)cc1 [VII-24, Benzamide, 4-(1,1-dimethylethyl)-N-[[(2-methyl-5-oxazolo[4,5-b]pyridin-2-ylphenyl)amino]thioxomethyl]-]	A (A represents less than 20% of increased proliferation of hFDPCs)
CC1(c2ccccc2)NC(=O)N(Cc2cc(=O)n3ccccc3n2)C1=O (stereo not drawn) [VII-25, 2,4-Imidazolidinedione, 5-methyl-3-[(4-oxo-4H-pyrido[1,2-a]pyrimidin-2-yl)methyl]-5-phenyl-]	B (B represents 20-40%)
Cc1ccccc1Cn1nc(C)c(NC(=O)c2csc3ccccc23)c1C [VII-26, Benzo[b]thiophene-3-carboxamide, N-[3,5-dimethyl-1-[(2-methylphenyl)methyl]-1H-pyrazol-4-yl]-]	A (A represents less than 20% of increased proliferation of hFDPCs)

Test system: TK.6 lymphoblasts
Assay: TK.6 micronucleus assay
Format: cell-based
Details: 24 hr
Experimental: The safety/toxicology profiles of a compound or salt of the present disclosure was evaluated via a series of in vitro genotoxicity assays, including the SOS-chromotest to determine bacterial genotoxicity, and the TK.6 micronucleus assay to determine chromosomal damage and forward mutations. Standard reactive oxygen species (ROS) and caspase 3/7 assay were conducted to determine general cellular toxicity. Moreover, a series of sensitization tests were conducted to predict any potential skin sensitivity. These include the direct peptide reactivity assay to evaluate haptenization, the KeratinoSens reporter assay to determine potential sensitivity via the activation of a cytoprotective pathway, and an immunological assay using human immature monocyte-derived dendritic cells to evaluate any potential immunogenicity.
TK.6 lymphoblasts are a well-studied cell line commonly used for gene mutation analyses. They are heterozygous for the thymidine kinase gene (TK) and enable the detection of forward mutations and chromosomal damage, which manifests as micronuclei and are detectable via flow cytometry.
TK.6 cells were dosed with the example compounds or a vehicle control (0.1% v/v DMSO) and cultured with or without S9 metabolic activation for 24 hr. […] Methyl methanesulfonate, a known genotoxic, alkylating agent was used as a positive control for micronuclei detection.
The micronucleus assay was also performed to determine if the compounds are genotoxic by evaluating the presence of micronuclei. […] In combination. […] I-17 elicited genotoxicity at >3.125 μg/mL.

SMILES	concentration at which genotoxicity was elicited in TK.6 micronuclei assay [ng/mL]
C=CCc1cc(/C=C2\C(=O)NC(=S)N(c3ccc(OC)cc3)C2=O)cc(OC)c1O [I-17]	> 3125

Test system: HepG2 cells
Assay: Caspase 3/7 activity in HepG2 cells
Format: cell-based
Details: HepG2, >2-log concentration range, versus % v/v-matched DMSO
Experimental: (§1) Cells were treated with either the example compounds or vehicle control containing correspondingly % v/v-matched amounts of DMSO spanning a >2-log concentration range. Data represents mean±s.d. and representative of at least 2 experimental replicates.
as §1, with “HepG2 cells are an immortalized liver cell line commonly used to study apoptosis induced by small molecules. Cells” for “Cells”

SMILES	Normalized caspase 3/7 activity
C=CCc1cc(/C=C2\C(=O)NC(=S)N(c3ccc(OC)cc3)C2=O)cc(OC)c1O [I-17]	significant caspase-3/7 activation at the highest concentration
